# Data reported in patent EP0612525B1, “Transdermal treatment with mast cell degranulating agents for drug-induced hypersensitivity” (BRISTOL-MYERS SQUIBB COMPANY, priority 1993, dated 1994).
# Values joined by “and” are separate entries in the source; they are usually repeats but may differ in a detail not shown here. Equal values may be shown once.
# Tests used:
# BALB/c female mice [1] = test: Contact hypersensitivity, TNBS sensitization / TNCB ear challenge (ear swelling); format: in vivo
# dermal mast cells = test: Chymase depletion from mast cells in skin organ cultures (immunohistochemical staining); format: cell-based
# Experimental: Chymase is a proteolytic enzyme with chymotrypsin activity that is released from dermal mast cells upon degranulation. The enzyme has been implicated in proteolytic breakdown of endothelial cell basement membrane matrix proteins and to thereby facilitate leukocyte diapedesis. The release of chymase from mast cells was detected as a depletion of chymase-specific immunohistochemical staining observed in cryosections of the dermis in skin organ cultures. As a positive control 5 mM of morphine sulfate (MSO4 + ctrl) was added to the culture medium bathing the skin organ cultures. The negative control was untreated culture medium (SCM-ctrl). Cis-urocanic acid was added to the culture medium at 1 µg/ml and 10 µg/ml.
# Balb/c mice [2] = test: Immune tolerance induction: re-sensitization with DNCB at a second skin site and re-challenge; format: in vivo; details: for EAR THICKNESS: DNCB 100 µg re-sensitization day 22, 24 Hours after re-challenge; for % SUPPRESSION / EAR SWELLING: DNCB day 22, 24 Hours
# Experimental: To induce immune tolerance, Balb/c mice were treated with CUA in gel formulation as outlined above and a sensitization response elicited in the standard manner. Two weeks later, the previously sensitized mice were re-sensitized by applying 10 µl of 1% DNCB to a second skin site on shaved backs of both control (non-sensitized) and experimental (immunosuppressed by prior treatment with CUA) mice. Both control and experimental animals were challenged 5 days later by application of 20 µl of 1% DNCB to the left ear; ear thickness measurements were made 24 hours later.
# Balb/c mice (N=8) were pretreated for 24 hours with 1% CUA in HPMC gel or 5% CUA in HPMC gel on the shaved abdominal skin (site 1), and challenged on the right ear five days later. The CUA-treated mice were immunosuppressed as shown in Table X. The same mice were re-sensitized with DNCB on a demarcated area of their shaved backs and rechallenged five days later on their left ears, and the ear thickness measured 24 hours post-challenge.
# BALB/c female mice [3] = test: Contact hypersensitivity, TNBS sensitization / TNCB ear challenge (ear swelling); format: in vivo; details: TNBS 35 µg
# Experimental: BALB/c female mice were maintained in a specific pathogen-free colony. Age-matched mice between 8 and 12 weeks of age were maintained in filter-protected cages and fed mouse chow and water ad libitum. Lighting was controlled to provide 12 hours light-dark cycles.
# A 7% (w/v) working solution of trinitrobenzene sulfonate (TNBS) was prepared in distilled water. […] For induction of sensitization, each of 5 Balb/c mice received epicutaneous application of 35 µg of TNBS via a Hilltop chamber for 5 hours.
# A contact hypersensitivity response was elicited on day 5 by challenging the right ear of each mouse with 20 µl of 1% trinitronchlorobenzene (TNCB) (in acetone). Ear thickness was measured with a spring-loaded caliper immediately before challenge, and at 24 and 48 hours after challenge. Ear thickness was measured in mm X 10^-3.
# The statistical significance of differences in the contact hypersensitivity response between control and treated mice was determined using Student's t test for two independent variables. Each group contained five mice. Negative control mice were treated for 24 hours with 100 µl of PBS, pH 5.5, and challenged on the right ear 5 days later with 20 µl of 1% TNCB.
# The mice were then epicutaneously sensitized with 100 µl of 0.035% TNBS (w/v) in PBS, pH 5.5.
# For pretreatment plus co-administration, mice were first pretreated for 24 hours as above. Thereafter, 6000 µg of UCA (100 µl of 6% solution, 60 mg/ml in PBS pH 5.5) were placed in the Hilltop chamber along with 35 µg of TNBS.
# Sensitization with TNBS was induced as described above.
# inflamed skin = test: Anti-inflammatory effect on bee-sting inflamed skin (single human subject); format: in vivo
# Experimental: A subject was stung by a bee on the medial aspect of the lower portion of the right leg. Within one hour the skin site surrounding the bite became inflamed and an allergic reaction of the delayed hypersensitivity type was seen 24 hours later. […] This response persisted for several days.
# The affected area was treated by application of 2% cis-UCA in a gel formulation (hydroxylpropylmethyl cellulose) to a 2-3 cm^2 area of inflamed skin. For a control, a similarly sized area of inflamed skin received the same hydroxylpropylmethyl cellulose gel without cis-UCA. Both treated areas were covered with a transparent dressing.
# Balb/c mice [4] = test: Contact hypersensitivity, DNCB sensitization / DNCB ear challenge (ear swelling); format: in vivo
# [5] = Percutaneous permeation of urocanic acid isomers through human cadaver skin (Franz cell diffusion chambers); format: in vitro ADME; details: in words
# Experimental: Skin permeation experiments were undertaken to measure the flux of cis-UCA and the trans-UCA) through human skin. This information is required for topical delivery of cis-UCA using a TDS.
# cis-UCA was prepared by ultraviolet irradiation of solutions of trans-UCA (obtained from Sigma Chemical Co., St. Louis, MO), as described above (see Example 1 above).
# For skin permeation experiments, human cadaver skin was obtained and sectioned on a dermatome to yield a partial thickness skin of about 400 µm. Partial thickness skin samples were transferred to standard Franz cell diffusion chambers with the stratum corneum side up, and equilibrated with phosphate buffered saline (PBS) at pH 7.2. at 35°C in standard thermal blocks (Pierce Reacti-Therm).
# Three different solution of UV-irradiated UCA were prepared. All samples were mixtures of both cis-UCA and trans-UCA, contained about between 55% to 67% cis-UCA. The three different solutions (0.5 ml) were applied to the skin samples in the donor chamber of the diffusion chamber, and fractions of the receptor solution (saline) were collected and the amount of cis and trans isomers that permeated through the skin determined by standard HPLC methods. […] The tissue extracts were neutralized and aliquots analyzed by HPLC.
# [6] = 2 mg (1%) HPMC gel pretreat, DNCB 100 µg, 24 Hours
# [7] = 2 mg (1%) HPMC gel pretreat, DNCB 100 µg, 72 Hours
# [8] = 10 mg (5%) HPMC gel pretreat, DNCB 100 µg, 24 Hours
# [9] = 10 mg (5%) HPMC gel pretreat, DNCB 100 µg, 72 Hours
# [10] = 5 Hours Pretreat 15 mg + DNCB 100 µg, 24 Hours
# [11] = 5 Hours Pretreat 15 mg + DNCB 100 µg, 48 Hours
# [12] = 24 Hours Pretreat 10 mg, then DNCB gel 100 µg, 24 Hours
# [13] = 24 Hours Pretreat 10 mg, then DNCB gel 100 µg, 48 Hours
# [14] = 24 Hours Pretreat 15 mg + DNCB 100 µg, 24 Hours
# [15] = 24 Hours Pretreat 15 mg + DNCB 100 µg, 48 Hours
# [16] = Co-Delivery, 10 mg + DNCB 100 µg, 24 Hours
# [17] = Co-Delivery, 10 mg + DNCB 100 µg, 48 Hours
smiles,measurement,setting,value
"CCN(CC)CCCC(C)Nc1ccnc2cc(Cl)ccc12 (centres unmarked) [chloroquine, Chloroquine, reference compound]",% SUPPRESSION,"BALB/c female mice [1]; 200 µg intradermally, TNBS 2.45 mg, 24 Hours",39.6%
same,% SUPPRESSION,"BALB/c female mice [1]; 200 µg intradermally, TNBS 2.45 mg, 48 Hours",46.5%
"O=C(O)/C=C\c1c[nH]cn1 [cis-UCA, cis-urocanic acid]",% SUPPRESSION,"BALB/c female mice [1]; 200 µg, 24 hours before TNBS 3.5 mg, 24 hours after challenge",36%
same,% SUPPRESSION,"BALB/c female mice [1]; 600 µg, 24 hours before TNBS 3.5 mg, 24 hours after challenge",63%
same,% SUPPRESSION,"BALB/c female mice [1]; pretreatment + co-administration, TNBS 35 µg, 24 Hours",52.8%
same,% SUPPRESSION,"BALB/c female mice [1]; pretreatment + co-administration, TNBS 35 µg, 48 Hours",56%
same,% SUPPRESSION,"BALB/c female mice [1]; pretreatment + co-administration, TNBS 35 µg, 48 Hours, listed as cis-UROCANIC ACID",55.8%
same,% SUPPRESSION,"BALB/c female mice [1]; pretreatment only, 6% UCA PBS pH 5.5, TNBS 35 µg, 24 Hours",68.3%
same,% SUPPRESSION,"BALB/c female mice [1]; pretreatment only, 6% UCA PBS pH 5.5, TNBS 35 µg, 48 Hours",77%
same,% SUPPRESSION,"BALB/c female mice [1]; pretreatment only, 6% UCA PBS pH 5.5, TNBS 35 µg, 48 Hours, listed as cis-UROCANIC ACID",77.2%
same,chymase positive mast cell per mm^2,dermal mast cells; 1 µg/ml in culture medium,22 ± 20 per mm^2
same,chymase positive mast cell per mm^2,dermal mast cells; 10 µg/ml in culture medium,20 ± 10 per mm^2
same,EAR THICKNESS,Balb/c mice [2]; 2 mg (1% HPMC gel) day -1,327 ± 60 mm X 10^3
same,% SUPPRESSION,Balb/c mice [2]; 2 mg day -1,51%
same,EAR SWELLING,Balb/c mice [2]; 2 mg day -1,70 mm X 10^3
same,EAR THICKNESS,Balb/c mice [2]; 10 mg (5% HPMC gel) day -1,334 ± 17 mm X 10^3
same,% SUPPRESSION,Balb/c mice [2]; 10 mg day -1,42%
same,EAR SWELLING,Balb/c mice [2]; 10 mg day -1,84 mm X 10^3
same,% SUPPRESSION,"BALB/c female mice [3]; intradermal injection 200 µg, 24 Hours",48% and 48.4%
same,% SUPPRESSION,"BALB/c female mice [3]; intradermal injection 200 µg, 48 Hours",32% and 31.6%
same,% SUPPRESSION,"BALB/c female mice [3]; pretreatment + co-administration, 24 Hours",53%
same,% SUPPRESSION,"BALB/c female mice [3]; pretreatment only, 6% UCA PBS pH 5.5, 24 Hours",68%
same,appearance of treated skin site,"inflamed skin; 2% gel, 14 hours after initiation of treatment",depressed (appearing normal) and lacked any red color
same,erythema and induration of inflamed skin,"inflamed skin; 2% in hydroxylpropylmethyl cellulose gel, 2-3 cm^2 area, approximately 1 hour after application",erythema and induration disappeared
same,% SUPPRESSION,Balb/c mice [4]; [6],71%
same,EAR SWELLING,Balb/c mice [4]; [6],26 mm X 10^3
same,EAR SWELLING,Balb/c mice [4]; [7],48 mm X 10^3
same,EAR THICKNESS,Balb/c mice [4]; [7],288 ± 23 mm X 10^3
same,EAR THICKNESS,"Balb/c mice [4]; 2 mg (1%) HPMC gel, 24 h pretreatment, DNCB 100 µg, 24 Hours",270 ± 16 mm X 10^3
same,% SUPPRESSION,Balb/c mice [4]; [8],80%
same,EAR SWELLING,Balb/c mice [4]; [8],18 mm X 10^3
same,EAR THICKNESS,Balb/c mice [4]; [8],261 ± 15 mm X 10^3
same,% SUPPRESSION,Balb/c mice [4]; [9],59%
same,EAR SWELLING,Balb/c mice [4]; [9],30 mm X 10^3
same,EAR THICKNESS,Balb/c mice [4]; [9],270 ± 15 mm X 10^3
same,EAR THICKNESS,"Balb/c mice [4]; 5 Hours Pretreat 15 mg (7.5% gel) + DNCB 100 µg, 24 Hours",285 ± 27 mm X 10^3
same,% SUPPRESSION,Balb/c mice [4]; [10],46%
same,EAR SWELLING,Balb/c mice [4]; [10],42 mm X 10^3
same,% SUPPRESSION,Balb/c mice [4]; [11],27%
same,EAR SWELLING,Balb/c mice [4]; [11],42 mm X 10^3
same,EAR THICKNESS,Balb/c mice [4]; [11],284 ± 20 mm X 10^3
same,EAR THICKNESS,"Balb/c mice [4]; 24 Hours Pretreat 10 mg (5% gel), then DNCB gel 100 µg, 24 Hours",260 ± 19 mm X 10^3
same,% SUPPRESSION,Balb/c mice [4]; [12],52%
same,EAR SWELLING,Balb/c mice [4]; [12],29 mm X 10^3
same,% SUPPRESSION,Balb/c mice [4]; [13],69%
same,EAR SWELLING,Balb/c mice [4]; [13],20 mm X 10^3
same,EAR THICKNESS,Balb/c mice [4]; [13],259 ± 12 mm X 10^3
same,EAR THICKNESS,"Balb/c mice [4]; 24 Hours Pretreat 15 mg (7.5% gel) + DNCB 100 µg, 24 Hours",288 ± 25 mm X 10^3
same,% SUPPRESSION,Balb/c mice [4]; [14],59%
same,EAR SWELLING,Balb/c mice [4]; [14],47 mm X 10^3
same,% SUPPRESSION,Balb/c mice [4]; [15],54%
same,EAR SWELLING,Balb/c mice [4]; [15],36 mm X 10^3
same,EAR THICKNESS,Balb/c mice [4]; [15],276 ± 14 mm X 10^3
same,EAR THICKNESS,"Balb/c mice [4]; Co-Delivery, 10 mg (5% gel) + DNCB 100 µg, 24 Hours",277 ± 27 mm X 10^3
same,% SUPPRESSION,Balb/c mice [4]; [16],not statistically significant
same,EAR SWELLING,Balb/c mice [4]; [16],39 mm X 10^3
same,% SUPPRESSION,"Balb/c mice [4]; Co-Delivery, 10 mg + DNCB 100 µg, 24 Hours, listed as UCA",28%
same,% SUPPRESSION,Balb/c mice [4]; [17],29%
same,EAR SWELLING,Balb/c mice [4]; [17],43 mm X 10^3
same,EAR THICKNESS,Balb/c mice [4]; [17],273 ± 23 mm X 10^3
same,fluxes through human skin (comparison of isomers),[5],comparable fluxes
"CN1CC[C@]23c4c5ccc(O)c4O[C@H]2[C@@H](O)C=C[C@H]3[C@H]1C5.O=S(=O)(O)O [morphine sulfate, reference compound]",chymase positive mast cell per mm^2,"dermal mast cells; 5 mM in culture medium, positive control",37 ± 15 per mm^2
